Key:
[1] = Oral bioavailability in rat; format: ADME, organism-based; details: in vivo
Prostacyclin receptor = Prostacyclin receptor (Homo sapiens, UniProt P43119); test: Displacement of [3H]iloprost from cloned human PGI2 receptor
[2] = Cmax in rat at 1 mg/kg, po; format: ADME, organism-based; set-up: dose 1 mg/kg, route oral; details: in vivo
[3] = AUC in rat at 1 mg/kg, po; format: ADME, organism-based; set-up: dose 1 mg/kg, route oral; details: plasma

Chain of Prostacyclin receptor (P43119 whole entry): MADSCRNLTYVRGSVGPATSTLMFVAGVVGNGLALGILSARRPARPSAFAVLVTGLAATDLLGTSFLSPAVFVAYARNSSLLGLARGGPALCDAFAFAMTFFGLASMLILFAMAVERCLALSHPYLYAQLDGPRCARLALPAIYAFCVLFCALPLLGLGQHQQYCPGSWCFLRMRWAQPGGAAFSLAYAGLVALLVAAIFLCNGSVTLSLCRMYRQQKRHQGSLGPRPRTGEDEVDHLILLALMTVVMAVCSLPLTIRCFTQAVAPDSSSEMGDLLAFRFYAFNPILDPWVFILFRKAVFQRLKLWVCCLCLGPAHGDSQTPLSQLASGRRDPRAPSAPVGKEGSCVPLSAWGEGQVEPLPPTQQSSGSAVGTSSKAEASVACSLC

Row | bioavailability [1] [%] | Ki (Prostacyclin receptor) [nM] | Cmax [2] [ng/mL] | AUC [3] [ng·h/mL] | SMILES
1 | 50 | 60 | – | – | O=C([O-])COc1cccc(C[C@@H]2CCCC=C2c2nc(-c3ccccc3)c(-c3ccccc3)o2)c1.[Na+]
2 | – | 76 | – | – | O=C(O)COc1cccc(CN2CCC[C@@H]2c2nc(-c3ccccc3)c(-c3ccccc3)o2)c1
3 | 41 | – | 15.5 | 81.7 | Cl.O=C(O)COc1cccc(CN2CCC[C@@H]2c2nc(-c3ccccc3)c(-c3ccccc3)o2)c1
